Target: T1, sGC α1/β1 heterodimer (Homo sapiens, UniProt Q02108+Q02153)
T1 construct: expressed in transfected cells; host or cells: CHO-K1 (clone #7, CHO-K1/sGC)
T1 sequence (Q02108 1-690): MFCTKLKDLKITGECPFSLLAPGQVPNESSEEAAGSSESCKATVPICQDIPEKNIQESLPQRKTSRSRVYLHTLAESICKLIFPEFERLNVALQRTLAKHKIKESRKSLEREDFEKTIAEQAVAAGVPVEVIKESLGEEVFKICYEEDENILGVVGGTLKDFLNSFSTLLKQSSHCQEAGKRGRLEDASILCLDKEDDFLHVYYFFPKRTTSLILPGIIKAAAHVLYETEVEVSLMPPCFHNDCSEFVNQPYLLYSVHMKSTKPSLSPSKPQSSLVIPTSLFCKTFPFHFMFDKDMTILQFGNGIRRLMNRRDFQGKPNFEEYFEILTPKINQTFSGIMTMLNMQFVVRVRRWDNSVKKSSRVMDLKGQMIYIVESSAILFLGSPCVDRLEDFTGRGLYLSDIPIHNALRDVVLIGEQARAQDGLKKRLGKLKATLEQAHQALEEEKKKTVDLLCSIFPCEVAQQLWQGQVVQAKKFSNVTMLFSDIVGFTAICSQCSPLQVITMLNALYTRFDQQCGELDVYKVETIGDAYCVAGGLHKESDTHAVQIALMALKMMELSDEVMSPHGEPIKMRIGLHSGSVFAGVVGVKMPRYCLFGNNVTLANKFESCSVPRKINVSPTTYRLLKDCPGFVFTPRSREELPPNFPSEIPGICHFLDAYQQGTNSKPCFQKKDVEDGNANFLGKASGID
T1 sequence (Q02153 1-619): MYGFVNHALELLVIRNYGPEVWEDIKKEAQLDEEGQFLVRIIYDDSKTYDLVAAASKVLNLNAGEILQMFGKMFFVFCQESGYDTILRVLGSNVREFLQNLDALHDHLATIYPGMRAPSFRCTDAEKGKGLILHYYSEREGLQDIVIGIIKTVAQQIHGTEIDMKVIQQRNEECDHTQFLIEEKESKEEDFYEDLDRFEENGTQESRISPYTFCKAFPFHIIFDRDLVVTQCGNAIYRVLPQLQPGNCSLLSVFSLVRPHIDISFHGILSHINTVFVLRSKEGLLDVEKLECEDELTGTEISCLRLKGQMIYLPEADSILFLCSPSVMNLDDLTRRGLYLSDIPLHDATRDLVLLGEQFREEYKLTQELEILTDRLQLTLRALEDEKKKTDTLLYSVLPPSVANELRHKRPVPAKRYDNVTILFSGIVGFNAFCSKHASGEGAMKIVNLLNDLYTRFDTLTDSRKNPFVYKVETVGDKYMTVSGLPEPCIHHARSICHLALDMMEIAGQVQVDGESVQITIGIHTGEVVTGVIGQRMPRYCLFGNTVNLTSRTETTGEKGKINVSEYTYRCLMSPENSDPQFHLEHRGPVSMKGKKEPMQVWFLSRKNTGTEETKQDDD
Test: Cell-based sGC functional assay (CASA assay): cGMP generation in CHO-K1/sGC cells, HTRF detection
Conditions: for Emax: CHO-K1, percent activation relative to standard Compound A in CHO-K1/sGC cells, read-out: % Act.; for EC50: inflection point (IP) of cGMP generation in CHO-K1/sGC cells, 4P fit, activity expressed as percentage of Compound A
Procedure, shortened: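 Stable CHO-K1/sGC cells in EBSS buffer with 5 mM MgCl2, 0.05% BSA and 0.5 mM IBMX were incubated with compound (2.5% DMSO final) ±1 μM DETA-NO for 1 hr at 37° C. cGMP was measured by HTRF. Activation is expressed as % of reference HDA Compound A maximum, with IP and max fold induction from a 4P fit.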

| SMILES | Emax | EC50 |
| --- | --- | --- |
| CCCc1nc(-c2nc(N)c3c(n2)NC(=O)C3(C)c2ccc(OC(F)(F)F)cc2)cn2ccnc12 (centres unmarked) [Example 24A, 4-amino-5-methyl-2-(8-propylimidazo[1,2-a]pyrazin-6-yl)-5-(4-(trifluoromethoxy)phenyl)-5H-pyrrolo[2,3-d]pyrimidin-6(7H)-one] | 104% | 410 nM |
| CC(C)Cc1nc(-c2nc(N)c3c(n2)NC(=O)C3(C)c2ccc(OC(F)(F)F)cc2)cn2ccnc12 (centres unmarked) [Example 25A, 4-amino-2-(8-isobutylimidazo[1,2-a]pyrazin-6-yl)-5-methyl-5-(4-(trifluoromethoxy)phenyl)-5H-pyrrolo[2,3-d]pyrimidin-6(7H)-one] | 87% | 324 nM |
| CC1(c2ccc(F)cn2)C(=O)Nc2nc(-c3cn4ccnc4c(C4CCC4)n3)nc(N)c21 (centres unmarked) [Example 27B, 4-amino-2-(8-cyclobutylimidazo[1,2-a]pyrazin-6-yl)-5-(5-fluoropyridin-2-yl)-5-methyl-5H-pyrrolo[2,3-d]pyrimidin-6(7H)-one] | 85% | 441 nM |
| CC1(C(=O)NC2CC2)C(=O)Nc2nc(-c3cn4cc(C(F)(F)F)nc4c(Cc4cccc(F)c4F)n3)nc(N)c21 (centres unmarked) [Example 43A, 4-amino-N-cyclopropyl-2-(8-(2,3-difluorobenzyl)-2-(trifluoromethyl)imidazo[1,2-a]pyrazin-6-yl)-5-methyl-6-oxo-6,7-dihydro-5H-pyrrolo[2,3-d]pyrimidine-5-carboxamide] | 86% | 182 nM |
| Nc1nc(-c2cn3cc(C(F)(F)F)nc3c(Cc3ccccc3F)n2)nc2c1C(C(=O)NC1CC1)(C1CC1)C(=O)N2 (centres unmarked) [Example 45A, 4-amino-N,5-dicyclopropyl-2-(8-(2-fluorobenzyl)-2-(trifluoromethyl)imidazo[1,2-a]pyrazin-6-yl)-6-oxo-6,7-dihydro-5H-pyrrolo[2,3-d]pyrimidine-5-carboxamide] | 86% | 668 nM |
| CC1(C(=O)NC2CC2)C(=O)Nc2nc(-c3cn4cc(C(F)(F)F)nc4c(Cc4ccccc4F)n3)nc(N)c21 (centres unmarked) [Example 47B, 4-amino-N-cyclopropyl-2-(8-(2-fluorobenzyl)-2-(trifluoromethyl)imidazo[1,2-a]pyrazin-6-yl)-5-methyl-6-oxo-6,7-dihydro-5H-pyrrolo[2,3-d]pyrimidine-5-carboxamide] | 118% | 735 nM |
| Nc1nc(-c2cn3cc(C(F)(F)F)nc3c(Cc3cccc(F)c3F)n2)nc2c1C(C(=O)NC1CC1)(C1CC1)C(=O)N2 (centres unmarked) [Example 48B, 4-amino-N,5-dicyclopropyl-2-(8-(2,3-difluorobenzyl)-2-(trifluoromethyl)imidazo[1,2-a]pyrazin-6-yl)-6-oxo-6,7-dihydro-5H-pyrrolo[2,3-d]pyrimidine-5-carboxamide] | 93% | 442 nM |
| Nc1nc(-c2cn3cc(C(F)(F)F)nc3c(Cc3ccc(F)cc3)n2)nc2c1C(C(=O)NC1CC1)(C1CC1)C(=O)N2 (centres unmarked) [Example 50B, 4-amino-N,5-dicyclopropyl-2-(8-(4-fluorobenzyl)-2-(trifluoromethyl)imidazo[1,2-a]pyrazin-6-yl)-6-oxo-6,7-dihydro-5H-pyrrolo[2,3-d]pyrimidine-5-carboxamide] | 86% | 829 nM |
| CC1(C(=O)NC2CC2)C(=O)Nc2nc(-c3cn4cc(C(F)(F)F)nc4c(Cc4ccc(F)c(F)c4)n3)nc(N)c21 (centres unmarked) [Example 52A, 4-amino-N-cyclopropyl-2-(8-(3,4-difluorobenzyl)-2-(trifluoromethyl)imidazo[1,2-a]pyrazin-6-yl)-5-methyl-6-oxo-6,7-dihydro-5H-pyrrolo[2,3-d]pyrimidine-5-carboxamide] | 93% | 950 nM |
| Nc1nc(-c2cn3ccnc3c(CCC(F)(F)C(F)(F)F)n2)nc2c1C(c1nnc(C3CC3)s1)(C1CC1)C(=O)N2 (centres unmarked) [Example 54A, 4-amino-5-cyclopropyl-5-(5-cyclopropyl-1,3,4-thiadiazol-2-yl)-2-(8-(3,3,4,4,4-pentafluorobutyl)imidazo[1,2-a]pyrazin-6-yl)-5H-pyrrolo[2,3-d]pyrimidin-6(7H)-one] | 91% | 144 nM |
| CC(C)c1nnc(C2(C3CC3)C(=O)Nc3nc(-c4cn5ccnc5c(CCC(F)(F)C(F)(F)F)n4)nc(N)c32)s1 (centres unmarked) [Example 55A, 4-amino-5-cyclopropyl-5-(5-isopropyl-1,3,4-thiadiazol-2-yl)-2-(8-(3,3,4,4,4-pentafluorobutyl)imidazo[1,2-a]pyrazin-6-yl)-5H-pyrrolo[2,3-d]pyrimidin-6(7H)-one] | 93% | 634 nM |
| Nc1nc(-c2cn3ccnc3c(CCC(F)(F)C(F)(F)F)n2)nc2c1C(c1nnc(C3CC3)o1)(C1CC1)C(=O)N2 (centres unmarked) [Example 56B, 4-amino-5-cyclopropyl-5-(5-cyclopropyl-1,3,4-oxadiazol-2-yl)-2-(8-(3,3,4,4,4-pentafluorobutyl)imidazo[1,2-a]pyrazin-6-yl)-5H-pyrrolo[2,3-d]pyrimidin-6(7H)-one] | 89% | 772 nM |
| Cc1nnc(C2(C)C(=O)Nc3nc(-c4cn5ccnc5c(CCC(F)(F)C(F)(F)F)n4)nc(N)c32)o1 (centres unmarked) [Example 57A, 4-amino-5-methyl-5-(5-methyl-1,3,4-oxadiazol-2-yl)-2-(8-(3,3,4,4,4-pentafluorobutyl)imidazo[1,2-a]pyrazin-6-yl)-5H-pyrrolo[2,3-d]pyrimidin-6(7H)-one] | 101% | 920 nM |

The remaining lines, values ahead:

| Emax | EC50 | SMILES |
| --- | --- | --- |
| 82% | 652 nM | CC1(c2ccc(F)cc2)C(=O)Nc2nc(-c3cn4ccnc4c(C4CC4)n3)nc(N)c21 (centres unmarked) [Example 28A, 4-amino-2-(8-cyclopropylimidazo[1,2-a]pyrazin-6-yl)-5-(4-fluorophenyl)-5-methyl-5H-pyrrolo[2,3-d]pyrimidin-6(7H)-one] |
| 129% | 16 nM | CC1(C(=O)NC2CC2)C(=O)Nc2nc(-c3cn4ccnc4c(Cc4ccccc4F)n3)nc(N)c21 (centres unmarked) [Example 35A, 4-amino-N-cyclopropyl-2-(8-(2-fluorobenzyl)imidazo[1,2-a]pyrazin-6-yl)-5-methyl-6-oxo-6,7-dihydro-5H-pyrrolo[2,3-d]pyrimidine-5-carboxamide] |
| 103% | 32 nM | NC(=O)C1(C2CC2)C(=O)Nc2nc(-c3cn4ccnc4c(Cc4cccc(F)c4)n3)nc(N)c21 (centres unmarked) [Example 42B, 4-amino-5-cyclopropyl-2-(8-(3-fluorobenzyl)imidazo[1,2-a]pyrazin-6-yl)-6-oxo-6,7-dihydro-5H-pyrrolo[2,3-d]pyrimidine-5-carboxamide] |
| 88% | 286 nM | Nc1nc(-c2cn3cc(C(F)(F)F)nc3c(Cc3cccc(F)c3)n2)nc2c1C(C(=O)NC1CC1)(C1CC1)C(=O)N2 (centres unmarked) [Example 44B, 4-amino-N,5-dicyclopropyl-2-(8-(3-fluorobenzyl)-2-(trifluoromethyl)imidazo[1,2-a]pyrazin-6-yl)-6-oxo-6,7-dihydro-5H-pyrrolo[2,3-d]pyrimidine-5-carboxamide] |
| 124% | 570 nM | CC1(C(=O)NC2CC2)C(=O)Nc2nc(-c3cn4cc(C(F)(F)F)nc4c(Cc4cccc(F)c4)n3)nc(N)c21 (centres unmarked) [Example 46A, 4-amino-N-cyclopropyl-2-(8-(3-fluorobenzyl)-2-(trifluoromethyl)imidazo[1,2-a]pyrazin-6-yl)-5-methyl-6-oxo-6,7-dihydro-5H-pyrrolo[2,3-d]pyrimidine-5-carboxamide] |
| 93% | 890 nM | Nc1nc(-c2cn3cc(C(F)(F)F)nc3c(Cc3ccccc3)n2)nc2c1C(C(=O)NC1CC1)(C1CC1)C(=O)N2 (centres unmarked) [Example 51A, 4-amino-2-(8-benzyl-2-(trifluoromethyl)imidazo[1,2-a]pyrazin-6-yl)-N,5-dicyclopropyl-6-oxo-6,7-dihydro-5H-pyrrolo[2,3-d]pyrimidine-5-carboxamide] |
